Data published in patent US6667325B1, “Substituted pyrazole compounds” (Teikoku Hormone Mfg. Co., Ltd., priority 1999, dated 2003).

First: Cn1nc(-c2ccc(F)cc2)c(-c2ccncc2)c1CCCc1ccc([N+](=O)[O-])cc1 [Example 56, 3-(4-Fluorophenyl)-1-methyl-5-[3-(4-nitrophenyl)propyl]-4-(4-pyridyl)pyrazole]
Second: Cn1nc(-c2ccc(F)cc2)c(-c2ccncc2)c1CCCc1ccc(N)cc1 [Example 57, 5-[3-(4-Aminophenyl)propyl]-3-(4-fluorophenyl)-1-methyl-4-(4-pyridyl)pyrazole]
The melting point of the first is higher: 129.1 to 131.8 °C for the first, 80.5 to 81.1 °C for the second.

First: COc1ccc(CN(C)C(=O)c2c(-c3ccncc3)c(-c3ccc(F)cc3)nn2C)cc1 [Example 79, 3-(4-Fluorophenyl)-1-methyl-5-(N-methyl-4-methoxybenzylaminocarbonyl)-4-(4-pyridyl)pyrazole]
Second: COc1ccc(CNC(=O)c2c(-c3ccncc3)c(-c3ccc(F)cc3)nn2C)cc1 [Example 69, 3-(4-Fluorophenyl)-5-(4-methoxybenzylaminocarbonyl)-1-methyl-4-(4-pyridyl)pyrazole]
The melting point of the first is lower: 150.1 to 152.6 °C for the first, 162.3 to 164.8 °C for the second.

First: Fc1ccc(-c2n[nH]c(COCc3ccccc3)c2-c2ccncc2)cc1 [Example 82, 5(3)-(Benzyloxymethyl)-3(5)-(4-fluorophenyl)-4-(4-pyridyl)pyrazole]
Second: Fc1ccc(-c2n[nH]c(CCCc3ccccc3)c2-c2ccncc2)cc1 [Example 31, 3(5)-(4-Fluorophenyl)-5(3)-(3-phenylpropyl)-4-(4-pyridyl)pyrazole]
The melting point of the first is higher: 177.6 to 180.2 °C for the first, 155.5 to 156.5 °C for the second.

First: Cn1nc(-c2ccc(F)cc2)c(-c2ccncc2)c1C(O)CCc1ccccc1 (stereo not drawn) [Example 15, 3-(4-Fluorophenyl)-5-(1-hydroxy-3-phenylpropyl)-1-methyl-4-(4-pyridyl)pyrazole]
Second: Cn1nc(-c2ccc(F)cc2)c(-c2ccncc2)c1CCCc1ccccc1 [Example 58, 3-(4-Fluorophenyl)-1-methyl-5-(3-phenylpropyl)-4-(4-pyridyl)pyrazole]
The melting point of the first is lower: 62 to 65 °C for the first, 83 to 87 °C for the second.

First: CCn1nc(-c2ccc(F)cc2)c(-c2ccncc2)c1C(=O)N(C)Cc1ccccn1 [Example 80, 1-Ethyl-3-(4-fluorophenyl)-5-(N-methyl-2-pyridylmethylaminocarbonyl)-4-(4-pyridyl)pyrazole]
Second: CCn1nc(-c2ccc(F)cc2)c(-c2ccncc2)c1C(=O)N(C)Cc1ccccc1 [Example 75, 1-Ethyl-5-(N-methylbenzylaminocarbonyl)-3-(4-fluorophenyl)-4-(4-pyridyl)pyrazole]
The melting point of the first is lower: 144.4 to 146.8 °C for the first, 148 to 149.3 °C for the second.

Compared with `Cn1nc(-c2ccc(F)cc2)c(-c2ccncc2)c1CC(=O)Cc1ccccc1` [Example 87, 3-(4-Fluorophenyl)-1-methyl-5-(2-oxo-3-phenylpropyl)-4-(4-pyridyl)pyrazole], `O=C(Cc1ccccc1)Cc1[nH]nc(-c2ccc(F)cc2)c1-c1ccncc1` [Example 86, 3(5)-(4-Fluorophenyl)-5(3)-(2-oxo-3-phenylpropyl)-4-(4-pyridyl)pyrazole] is higher in melting point: 148.1 to 151 °C for the first, 187.7 to 193.5 °C for the second.

First: CC(=Cc1[nH]nc(-c2ccc(F)cc2)c1-c1ccncc1)Cc1cccnc1 [Example 27, 3(5)-(4-Fluorophenyl)-5(3)-[2-methyl-3-(3-pyridyl)-1-propenyl]-4-(4-pyridyl)pyrazole]
Second: Fc1ccc(-c2n[nH]c(C=CCc3cccnc3)c2-c2ccncc2)cc1 [Example 26, 3(5)-(4-Fluorophenyl)-4-(4-pyridyl)-5(3)-[3-(3-pyridyl)-1-propenyl]pyrazole]
The melting point of the first is higher: 215.5 to 217.5 °C for the first, 187 to 188 °C for the second.

First: CCN(Cc1ccccc1)C(=O)c1[nH]nc(-c2ccc(F)cc2)c1-c1ccncc1 [Example 74, 5(3)-(N-Ethylbenzylaminocarbonyl)-3(5)-(4-fluorophenyl)-4-(4-pyridyl)pyrazole]
Second: CCN(Cc1ccccc1)C(=O)c1c(-c2ccncc2)c(-c2ccc(F)cc2)nn1CC [Example 76, 1-Ethyl-5-(N-ethylbenzylaminocarbonyl)-3-(4-fluorophenyl)-4-(4-pyridyl)pyrazole]
The melting point of the first is higher: 202.9 to 204.6 °C for the first, 114.9 to 116.7 °C for the second.

Compared with `CN(Cc1ccccc1)C(=O)c1c(-c2ccncc2)c(-c2ccc(F)cc2)nn1C` [Example 77, 3-(4-Fluorophenyl)-1-methyl-5-(N-methylbenzylaminocarbonyl)-4-(4-pyridyl)pyrazole], `CN(Cc1ccccc1)C(=O)c1c(-c2ccncc2)c(-c2ccc(F)cc2)nn1CCO` [Example 81, 3-(4-Fluorophenyl)-1-(2-hydroxyethyl)-5-(N-methylbenzylaminocarbonyl)-4-(4-pyridyl)pyrazole] is lower in melting point: 149.1 to 150.2 °C for the first, 135.9 to 138.1 °C for the second.

First: COc1ccc(CN(C)C(=O)c2[nH]nc(-c3ccc(F)cc3)c2-c2ccncc2)cc1 [Example 73, 3(5)-(4-Fluorophenyl)-5(3)-(N-methyl-4-methoxybenzylaminocarbonyl)-4-(4-pyridyl)pyrazole]
Second: CC(OCc1ccccc1)c1[nH]nc(-c2ccc(F)cc2)c1-c1ccncc1 (stereo not drawn) [Example 83, 5(3)-[1-(Benzyloxy)ethyl]-3(5)-(4-fluorophenyl)-4-(4-pyridyl)pyrazole]
The melting point of the first is higher: 225.8 to 228.4 °C for the first, 169.2 to 173.5 °C for the second.

First: Fc1ccc(-c2n[nH]c(CCCn3cccn3)c2-c2ccncc2)cc1 [Example 55, 3(5)-(4-Fluorophenyl)-5(3)-[3-(1-pyrazolyl)propyl]-4-(4-pyridyl)pyrazole]
Second: Fc1ccc(-c2n[nH]c(CCCc3ccccn3)c2-c2ccncc2)cc1 [Example 40, 3(5)-(4-Fluorophenyl)-4-(4-pyridyl)-5(3)-[3-(2-pyridyl)propyl]pyrazole]
The melting point of the first is higher: 144.5 to 146.5 °C for the first, 143 to 144.5 °C for the second.

First: Fc1ccc(-c2n[nH]c(CCCc3cccnc3)c2-c2ccncc2)cc1 [Example 43, 3(5)-(4-Fluorophenyl)-4-(4-pyridyl)-5(3)-[3-(3-pyridyl)propyl]pyrazole]
Second: Cn1nc(-c2ccc(F)cc2)c(-c2ccncc2)c1C=CCc1ccccc1 [Example 29, 3-(4-Fluorophenyl)-1-methyl-5-(3-phenyl-1-propenyl)-4-(4-pyridyl)pyrazole]
The melting point of the first is higher: 207 to 210 °C for the first, 136 to 137 °C for the second.
